Reference: patent US11525835B2, “Compounds and methods for use in detecting gabapentin” (Ark Diagnostics, Inc., priority 2007, dated 2022)

Tested on: Rabbit polyclonal antibody #10930
Assay: Specificity of the immunoassay (cross-reactivity of antibody with other antiepileptic drugs)
Type: binding
Settings: assayed in duplicate, Cobas Mira
Excerpt: Antibodies obtained using any of the disclosed techniques are screened or purified not only for their ability to react with gabapentin, but for a low cross-reactivity with potential interfering substances. “Cross-reactivity” may be determined in a quantitative immunoassay by establishing a standard curve using known dilutions of the target analyte, gabapentin. The standard curve is then used to calculate the apparent concentration of the interfering substance present in various known amounts in samples assayed under similar condition. The cross-reactivity is the apparent concentration divided by the actual concentration multiplied by 100. An exemplary immunoassay for determining cross-reactivity is a homogeneous enzyme immunoassay using a wild type G6PDH as described in U.S. Pat. No. 3,817,837 or mutant G6PDH engineered to contain a cysteine per subunit as described in U.S. Pat. Nos. 6,033,890, 6,090,567 and 6,455,288. Furthermore, the cross-reactivity can be determined in the same type of immunoassay in which the antibody will ultimately be used.
The gabapentin antibodies and enzyme conjugates may be advantageously used in a homogeneous assay format to detect gabapentin in samples. An analyzer (instrument) useful to set up the assay is Roche Cobas Mira (Roche Diagnostics). Gabapentin containing sample is incubated with antibody reagent followed by the addition of the enzyme conjugate reagent. The enzyme conjugate activity decreases upon binding to the antibody. The enzyme conjugate, which is not bound to the antibody, catalyzes the oxidation of glucose 6-phosphate (G6P). The oxidation of G6P is coupled with the reduction of NAD^+ to NADH, which can be measured at 340 nm. The change in the absorbance at 340 nm can be measured spectrophotometrically. The gabapentin concentration in a specimen can be measured in terms of G6PDH activity. The increase in the rate at 340 nm is due to the formation of NADH and is proportional to the enzyme conjugate activity. An assay curve is generated (FIG. 6) using gabapentin spiked into negative calibrator matrix. The assay rate increases with increasing the concentration of free drug in the sample.
The specificity of the immunoassay was evaluated by adding potentially crossreactant drugs to human serum and determining the increase in the apparent concentration as a result of the presence of crossreactant. Separate stock solutions of gabapentin were prepared by dissolving the drug in methanol to give a stock solution of 1000 μg/mL. […] Each sample was assayed in duplicate. Testing was performed on the Cobas Mira Analyzer®. The percentage concentration above 5 μg/mL of gabapentin was calculated for each crossreactant.

[1] = AED at 100 μg/mL in human serum

In the case of NC(=O)N1c2ccccc2C=Cc2ccccc21 [Carbamazepine], the “Percent Increase in Apparent Gabapentin” value [1] was 0%.

In the case of Nc1nnc(-c2cccc(Cl)c2Cl)c(N)n1 [Lamotrigine], the “Percent Increase in Apparent Gabapentin” value [1] was 0%.

In the case of CC[C@@H](C(N)=O)N1CCCC1=O [Levetiracetam], the “Percent Increase in Apparent Gabapentin” value [1] was 0%.

In the case of CCCC(CCC)C(=O)O [Valproic Acid], the “Percent Increase in Apparent Gabapentin” value [1] was 0%.

For NS(=O)(=O)Cc1noc2ccccc12 [Zonisamide], the “Percent Increase in Apparent Gabapentin” value (AED at 50 μg/mL in human serum) was 0%.
